The target of assay [1] is T1, factor B (Homo sapiens, UniProt P00751). As to the kind of experiment: assay of Biological Example 2.7. Format: binding. The arrangement: made in house; host or cells: drosophila cells. As to conditions: assay of Biological Example 2.7 (Table 2).
Target sequence in this assay (P00751 26-764): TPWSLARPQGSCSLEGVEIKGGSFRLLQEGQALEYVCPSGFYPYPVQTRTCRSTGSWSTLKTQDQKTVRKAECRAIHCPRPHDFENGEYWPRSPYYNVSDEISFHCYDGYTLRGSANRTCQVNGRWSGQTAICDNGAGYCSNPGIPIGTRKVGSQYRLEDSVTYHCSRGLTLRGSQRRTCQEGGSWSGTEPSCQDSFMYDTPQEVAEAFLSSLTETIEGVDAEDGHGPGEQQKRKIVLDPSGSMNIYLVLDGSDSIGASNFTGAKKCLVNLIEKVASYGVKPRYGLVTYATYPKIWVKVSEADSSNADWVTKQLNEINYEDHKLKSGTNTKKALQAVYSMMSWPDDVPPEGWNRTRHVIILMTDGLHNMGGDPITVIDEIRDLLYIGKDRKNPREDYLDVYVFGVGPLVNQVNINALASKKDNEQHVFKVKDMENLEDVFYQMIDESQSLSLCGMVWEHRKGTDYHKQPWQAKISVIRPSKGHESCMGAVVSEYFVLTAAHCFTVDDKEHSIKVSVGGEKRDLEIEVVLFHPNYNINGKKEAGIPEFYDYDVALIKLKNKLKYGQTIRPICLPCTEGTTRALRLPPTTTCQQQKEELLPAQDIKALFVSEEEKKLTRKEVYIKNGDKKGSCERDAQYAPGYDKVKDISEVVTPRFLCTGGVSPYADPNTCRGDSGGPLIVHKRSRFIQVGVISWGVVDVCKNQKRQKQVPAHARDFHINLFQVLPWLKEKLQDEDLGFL
Assay [2] deals with T1, factor B. The assay is described as follows: factor B inhibition assay of Biological Example 1. It counts as biochemical. The arrangement: CVF-Bb complex prepared from purified cobra venom factor (1 μM), recombinant human complement factor B; made in house; host or cells: drosophila cells (factor B); E. coli (factor D used to form the complex). The note with it: assay of Biological Example 1 (Table 1).
Target sequence in this assay (P00751 260-764 limits assumed): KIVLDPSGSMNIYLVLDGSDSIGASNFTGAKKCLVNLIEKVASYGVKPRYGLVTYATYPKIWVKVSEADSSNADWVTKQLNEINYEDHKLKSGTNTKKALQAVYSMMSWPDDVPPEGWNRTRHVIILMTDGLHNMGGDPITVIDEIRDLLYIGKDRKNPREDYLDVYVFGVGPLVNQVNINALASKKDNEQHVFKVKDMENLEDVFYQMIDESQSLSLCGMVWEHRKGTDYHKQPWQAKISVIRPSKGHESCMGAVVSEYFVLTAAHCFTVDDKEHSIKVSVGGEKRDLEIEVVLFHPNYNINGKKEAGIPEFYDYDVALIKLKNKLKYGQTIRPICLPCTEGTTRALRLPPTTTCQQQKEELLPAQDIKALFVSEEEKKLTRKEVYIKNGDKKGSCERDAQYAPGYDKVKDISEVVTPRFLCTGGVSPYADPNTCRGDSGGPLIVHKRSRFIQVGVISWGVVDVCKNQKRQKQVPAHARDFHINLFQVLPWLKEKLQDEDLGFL
Target sequence in this assay (Q91132 23-649 partner limits assumed): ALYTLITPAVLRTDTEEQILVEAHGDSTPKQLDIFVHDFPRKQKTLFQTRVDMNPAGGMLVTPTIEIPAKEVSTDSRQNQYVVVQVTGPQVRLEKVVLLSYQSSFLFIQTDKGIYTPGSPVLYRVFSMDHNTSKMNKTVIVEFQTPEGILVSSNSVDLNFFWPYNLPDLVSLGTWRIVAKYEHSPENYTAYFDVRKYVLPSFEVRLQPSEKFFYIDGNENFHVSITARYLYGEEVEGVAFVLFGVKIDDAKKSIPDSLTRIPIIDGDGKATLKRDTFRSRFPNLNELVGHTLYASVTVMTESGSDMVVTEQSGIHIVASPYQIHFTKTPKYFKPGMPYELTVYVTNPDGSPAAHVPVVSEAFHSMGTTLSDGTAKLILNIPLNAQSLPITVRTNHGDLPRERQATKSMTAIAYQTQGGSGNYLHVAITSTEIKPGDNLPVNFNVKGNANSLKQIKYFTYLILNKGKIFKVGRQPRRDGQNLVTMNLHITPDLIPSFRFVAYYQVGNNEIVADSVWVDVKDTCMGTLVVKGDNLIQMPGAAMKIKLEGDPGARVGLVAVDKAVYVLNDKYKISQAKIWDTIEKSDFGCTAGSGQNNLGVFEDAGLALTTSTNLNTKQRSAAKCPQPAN
Target sequence in this assay (Q91132 733-984 partner limits assumed): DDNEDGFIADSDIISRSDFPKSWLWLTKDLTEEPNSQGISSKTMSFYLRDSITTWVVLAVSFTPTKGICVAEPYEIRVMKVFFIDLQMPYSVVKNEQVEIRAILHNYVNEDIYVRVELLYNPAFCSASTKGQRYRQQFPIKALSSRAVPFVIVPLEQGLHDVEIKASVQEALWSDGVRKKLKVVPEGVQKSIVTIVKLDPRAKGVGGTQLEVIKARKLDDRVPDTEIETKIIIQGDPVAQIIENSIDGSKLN
Target sequence in this assay (Q91132 1264-1642 partner limits assumed): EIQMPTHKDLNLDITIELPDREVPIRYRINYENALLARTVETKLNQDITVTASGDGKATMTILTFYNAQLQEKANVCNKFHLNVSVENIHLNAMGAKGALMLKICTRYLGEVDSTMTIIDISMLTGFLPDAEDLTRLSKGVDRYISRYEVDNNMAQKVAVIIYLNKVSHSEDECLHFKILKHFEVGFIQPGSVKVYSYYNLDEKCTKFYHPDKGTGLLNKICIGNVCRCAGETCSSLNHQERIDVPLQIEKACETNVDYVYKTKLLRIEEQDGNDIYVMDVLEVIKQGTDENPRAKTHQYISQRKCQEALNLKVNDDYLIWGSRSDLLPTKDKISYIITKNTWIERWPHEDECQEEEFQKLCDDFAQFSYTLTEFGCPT

For orientation: IC50 means the concentration at which inhibition is half-maximal. For `COc1cc(C)c2[nH]ccc2c1C(NCCN)(c1nc2cc(C#N)ccc2[nH]1)C(F)(F)F` (racemic) [38-D b) (+), (+)-2-(1-((2-aminoethyl)amino)-2,2,2-trifluoro-1-(5-methoxy-7-methyl-1H-indol-4-yl)ethyl)-1H-benzo[d]imidazole-5-carbonitrile], the 50% inhibitory concentration (IC50) in assay [1] was found to be 2060 nM.
Same read-out and setting: the same measure for `COc1cc(C)c2[nH]ccc2c1C(NCCN)(c1nc2cc(C#N)ccc2[nH]1)C(F)(F)F` (racemic) [38-D b) (−), (−)-2-(1-((2-aminoethyl)amino)-2,2,2-trifluoro-1-(5-methoxy-7-methyl-1H-indol-4-yl)ethyl)-1H-benzo[d]imidazole-5-carbonitrile]: 780 nM; for `COc1cc(C)c2[nH]ccc2c1C(OC(F)C(=O)O)(c1nc2cc(C#N)ccc2[nH]1)C(F)(F)F` (racemic) [Example 35-G, (±)-2-(1-(5-Cyano-1H-benzo[d]imidazol-2-yl)-2,2,2-trifluoro-1-(5-methoxy-7-methyl-1H-indol-4-yl)ethoxy)-2-fluoroacetic acid]: 770 nM; for `COc1cc(C)c2[nH]ccc2c1C(OCc1nnc(C)o1)(c1nc2cc(C#N)ccc2[nH]1)C(F)(F)F` (racemic) [Example 35-L, (±)-2-(2,2,2-Trifluoro-1-(5-methoxy-7-methyl-1H-indol-4-yl)-1-((5-methyl-1,3,4-oxadiazol-2-yl)methoxy)ethyl)-1H-benzo[d]imidazole-5-carbonitrile]: 240 nM.
On the same count and under the same terms, the same measure for `Cc1cc(C2CC2)c(C(OCC(=O)O)(c2nc3cc(C#N)ccc3[nH]2)C(F)(F)F)c2cc[nH]c12` (racemic) [Example 109-C, (±)-2-(1-(5-Cyano-1H-benzo[d]imidazol-2-yl)-1-(5-cyclopropyl-7-methyl-1H-indol-4-yl)-2,2,2-trifluoroethoxy)acetic acid]: 65 nM; for `COc1cc(C)c2[nH]ccc2c1C(OCC(C)(C)C(=O)O)(c1nc2cc(C#N)ccc2o1)C(F)(F)F` (racemic) [Example 138, (±)-3-(1-(5-cyanobenzo[d]oxazol-2-yl)-2,2,2-trifluoro-1-(5-methoxy-7-methyl-1H-indol-4-yl)ethoxy)-2,2-dimethylpropanoic acid]: 1220 nM; for `COc1cc(C)c2[nH]ccc2c1C(NCCO)(c1nc2cc(C#N)ccc2[nH]1)C(F)(F)F` (racemic) [Example 139-C, (±)-2-(2,2,2-Trifluoro-1-((2-hydroxyethyl)amino)-1-(5-methoxy-7-methyl-1H-indol-4-yl)ethyl)-1H-benzo[d]imidazole-5-carbonitrile]: 120 nM.
The same measure, in the same setting: the same measure for `COc1cc(C)c2[nH]ccc2c1C(NCC(=O)O)(c1nc2cc(C#N)ccc2[nH]1)C(F)(F)F` (racemic) [Example 140-B, (±)-2-((1-(5-cyano-1H-benzo[d]imidazol-2-yl)-2,2,2-trifluoro-1-(5-methoxy-7-methyl-1H-indol-4-yl)ethyl)amino)acetic acid]: 340 nM.
In assay [1], `COc1cc(C)c2[nH]ccc2c1C1(c2nc3cc(C#N)ccc3[nH]2)CC1C(=O)O` (racemic) [Example 142-D, (±)-2-(5-Cyano-1H-benzo[d]imidazol-2-yl)-2-(5-methoxy-7-methyl-1H-indol-4-yl)cyclopropanecarboxylic acid] showed an IC50 of 790 nM.
Same read-out and setting: as for `COc1cc(C)c2[nH]ccc2c1C1(c2nc3cc(C#N)ccc3o2)CC1C(=O)O` (racemic) [Example 143, (±)-2-(5-Cyanobenzo[d]oxazol-2-yl)-2-(5-methoxy-7-methyl-1H-indol-4-yl)cyclopropanecarboxylic acid], the figure is 7200 nM.
Still for that read-out and setting: as for `CCOC(=O)C(C)(c1nc2cc(C#N)ccc2o1)c1c(OC)cc(C)c2[nH]ccc12` (racemic) [Example 144-D, (±)-Ethyl 2-(5-cyanobenzo[d]oxazol-2-yl)-2-(5-methoxy-7-methyl-1H-indol-4-yl)propanoate], the figure is 7950 nM; as for `COc1cc(C)c2[nH]ccc2c1C(CC(=O)O)c1nc2cc(C#N)ccc2[nH]1` (racemic) [Example 145-D, (±)-3-(5-Cyano-1H-benzo[d]imidazol-2-yl)-3-(5-methoxy-7-methyl-1H-indol-4-yl)propanoic acid], 41 nM.
Same read-out and setting: the same measure for `COc1cc(C)c2[nH]ccc2c1C(CCO)c1nc2cc(C#N)ccc2[nH]1` (racemic) [Example 145-E, (±)-2-(3-hydroxy-1-(5-methoxy-7-methyl-1H-indol-4-yl)propyl)-1H-benzo[d]imidazole-5-carbonitrile]: 250 nM; for `COc1cc(C)c2[nH]ccc2c1C(CCC(=O)O)c1nc2cc(C#N)ccc2[nH]1` (racemic) [Example 146-C, (±)-4-(5-Cyano-1H-benzo[d]imidazol-2-yl)-4-(5-methoxy-7-methyl-1H-indol-4-yl)butanoic acid]: 59 nM.
Take `COc1cc(C)c2[nH]ccc2c1C(C)(CCC(=O)O)c1nc2cc(C#N)ccc2o1` (racemic) [Example 150-C, (±)-4-(5-cyanobenzo[d]oxazol-2-yl)-4-(5-methoxy-7-methyl-1H-indol-4-yl)pentanoic acid]: inhibition in assay [1] was half-maximal at 1020 nM (IC50).
`COc1cc(C)c2[nH]ccc2c1C(CC(C)CO)c1nc2cc(C#N)ccc2[nH]1` (racemic) [Example 151-C, (±)-2-(4-Hydroxy-1-(5-methoxy-7-methyl-1H-indol-4-yl)-3-methylbutyl)-1H-benzo[d]imidazole-5-carbonitrile] displayed an IC50 in assay [1] of 92 nM.
On the same count and under the same terms, the same measure for `COc1cc(C)c2[nH]ccc2c1C(Cc1nn[nH]n1)c1nc2cc(C#N)ccc2[nH]1` (racemic) [Example 152, (±)-2-(1-(5-Methoxy-7-methyl-1H-indol-4-yl)-2-(2H-tetrazol-5-yl)ethyl)-1H-benzo[d]imidazole-5-carbonitrile]: 67 nM; for `COc1cc(C)c2[nH]ccc2c1C(Cc1nn[nH]n1)c1nc2cc(C#N)ccc2o1` (racemic) [Example 153, (±)-2-(1-(5-Methoxy-7-methyl-1H-indol-4-yl)-2-(2H-tetrazol-5-yl)ethyl)benzo[d]oxazole-5-carbonitrile]: 1110 nM; for `COc1cc(C)c2[nH]ccc2c1C(C)(Cc1nn[nH]n1)c1nc2cc(C#N)ccc2o1` (racemic) [Example 154, (±)-2-(2-(5-Methoxy-7-methyl-1H-indol-4-yl)-1-(2H-tetrazol-5-yl)propan-2-yl)benzo[d]oxazole-5-carbonitrile]: 21100 nM.
The compound `COc1cc(C)c2[nH]ccc2c1C(C)(CCC(=O)O)c1nc2cc(C#N)ccc2[nH]1` (racemic) [Example 155-M, (±)-4-(5-Cyano-1H-benzo[d]imidazol-2-yl)-4-(5-methoxy-7-methyl-1H-indol-4-yl)pentanoic acid] displayed a half-maximal inhibitory concentration (IC50) in assay [1] of 20 nM.
On to `CCc1cc(C)c2[nH]cc(C#N)c2c1Cc1nc2cc(C#N)ccc2[nH]1` [Example 90, 2-((3-Cyano-5-ethyl-7-methyl-1H-indol-4-yl)methyl)-1H-benzo[d]imidazole-5-carbonitrile], for which the half-maximal inhibitory concentration (IC50) in assay [2] (IC50 (nM)) was determined as 110 nM.
`Cc1cc(Cl)c2[nH]ccc2c1Cc1nc2cc(C#N)ccc2[nH]1` [Example 110-K, 2-((7-Chloro-5-methyl-1H-indol-4-yl)methyl)-1H-benzo[d]imidazole-5-carbonitrile]: the IC50 in assay [2] (IC50 (nM)) worked out at 3330 nM.
Regarding `CCc1cc(C)c(Cc2nc3cc(C#N)ccc3[nH]2)c2cc[nH]c12` [Example 111-E, 2-((7-Ethyl-5-methyl-1H-indol-4-yl)methyl)-1H-benzo[d]imidazole-5-carbonitrile], the IC50 in assay [2] (IC50 (nM)) stood at 22900 nM.
The same measure, in the same setting: the same measure for `Cc1cc(Br)c2[nH]ccc2c1Cc1nc2cc(C#N)ccc2[nH]1` [Example 112-E, 2-((7-Bromo-5-methyl-1H-indol-4-yl)methyl)-1H-benzo[d]imidazole-5-carbonitrile]: 4150 nM; for `Cc1cc(CO)c2[nH]ccc2c1Cc1nc2cc(C#N)ccc2[nH]1` [Example 113-F, 2-((7-(Hydroxymethyl)-5-methyl-1H-indol-4-yl)methyl)-1H-benzo[d]imidazole-5-carbonitrile]: 9600 nM.
Still for that read-out and setting: as for `C=C(c1nc2cc(C#N)ccc2[nH]1)c1c(CC)cc(C)c2[nH]ccc12` [Example 114-C, 2-(1-(5-Ethyl-7-methyl-1H-indol-4-yl)vinyl)-1H-benzo[d]imidazole-5-carbonitrile], the figure is 70 nM; as for `C=C(c1nc2cc(C#N)ccc2[nH]1)c1c(OC)cc(C)c2[nH]ccc12` [Example 115, 2-(1-(5-Methoxy-7-methyl-1H-indol-4-yl)vinyl)-1H-benzo[d]imidazole-5-carbonitrile], 30 nM; as for `CCc1cc(C)c2[nH]cc(-c3ccn[nH]3)c2c1Cc1nc2cc(C#N)ccc2[nH]1` [Example 116-F, 2-((5-Ethyl-7-methyl-3-(1H-pyrazol-5-yl)-1H-indol-4-yl)methyl)-1H-benzo[d]imidazole-5-carbonitrile], 190 nM.
As for `COc1cc(C)c2[nH]ccc2c1C(C)(C)c1nc2cc(C#N)ccc2[nH]1` [Example 122-C, 2-(2-(5-Methoxy-7-methyl-1H-indol-4-yl)propan-2-yl)-1H-benzo[d]imidazole-5-carbonitrile], the IC50 in assay [2] (IC50 (nM)) amounted to 5 nM.
As to `Cc1cc(C)c2c(c1Cc1nc3cc(C#N)ccc3[nH]1)CCN2` [Example 123, 2-((5,7-Dimethylindolin-4-yl)methyl)-1H-benzo[d]imidazole-5-carbonitrile], in assay [2] (IC50 (nM)), the half-inhibitory concentration (IC50) was 920 nM.
Consider “(+) or (−)-2-(1-methoxy-1-(7-methyl-5-(methylsulfonyl)-1H-indol-4-yl)ethyl)-1H-benzo[d]imidazole-5-carbonitrile [12-B b) (tr = 3.5 min)]”, for which, in assay [2] (read-out: IC50), the 50% inhibitory concentration (IC50) was 13800 nM.
For the compound “(−) or (+)-2-(1-methoxy-1-(7-methyl-5-(methylsulfonyl)-1H-indol-4-yl)ethyl)-1H-benzo[d]imidazole-5-carbonitrile [12-B b) (tr = 6.1 min)]”, the concentration for half-maximal inhibition (IC50) in assay [2] (read-out: IC50) was found to be 600 nM.
